Marks after values point to notes of the source that are not given here.
Conditions: pH 2.3
For `CCOC(=O)C(C#N)=C(NC(C)C(C)C)c1ccc(Cl)nc1Cl` (stereo not drawn) [Compound 986], the “Log P” value was 3.85^[c]; 3.85^[b].
For `CCOC(=O)C(C#N)=C(NC(C)C(C)C)c1cccnc1C(C)=O` (stereo not drawn) [Compound 980], the “Log P” value was 3.11.
In the case of `CCOC(=O)C(C#N)=C(Nc1ccccc1SC)c1ccc(C)nc1Cl` [Compound 343], the “Log P” value is reported as 3.57.
For `CCOC(=O)C(C#N)=C(NC(C)c1nccs1)c1cccnc1F` (stereo not drawn) [Compound 79], the “Log P” value was 2.47.
With `CCOC(=O)C(C#N)=C(Nc1cc(F)ccc1F)c1cccnc1Cl` [Compound 1609] the “Log P” value was 2.95.
With `C=CCNC(=O)C(C#N)=C(NC(C)C(C)C)c1cccnc1Cl` (stereo not drawn) [Compound 1458] the “Log P” value was 3^[c]; 3^[b].

Same assay, conditions: pH 2.7
With `CCOC(=O)C(C#N)=C(NC(C)c1nccs1)c1ccnc(CC)c1Cl` (stereo not drawn) [Compound 1383] the “Log P” value was 2.92^[a].
In the case of `CCOC(=O)C(C#N)=C(NC(CC(F)(F)F)c1ccccc1)c1cn(C)nc1C(F)F` (stereo not drawn) [Compound 1428], the “Log P” value is reported as 3.37^[a].
For `CCCCCCC(C)NC(=C(C#N)C(=O)OCC)c1sccc1Br` (racemic) [Compound 814], the “Log P” value was 5.48^[a].
In the case of `CC(C)CNC(=O)C(C#N)=C(NC(C)C(C)C)c1cccnc1Cl` (stereo not drawn) [Compound 1494], the “Log P” value is reported as 3.74^[a].
For `COC(=O)C(C#N)=C(NC(C)(C)c1ccc(Cl)cc1)c1cccnc1Cl` [Compound 337], the “Log P” value was 3.33^[a].
In the case of `CCOC(=O)C(C#N)=C(NC(C)c1ncc(C(F)(F)F)cc1Cl)c1cccnc1Cl` (mixture of isomers) [Compound 288], the “Log P” value is reported as 3.9^[a].
With `C=CCOC(=O)C(C#N)=C(NCc1nccs1)c1cn(C)nc1C(F)F` [Compound 306] the “Log P” value was 2.25^[a].
In the case of `CCNC(=O)C(C#N)=C(NC(C)c1nccs1)c1ccnc(C)c1Cl` (stereo not drawn) [Compound 1306], the “Log P” value is reported as 2.18^[a].
In the case of `CCOC(=O)C(C#N)=C(NC(C)C(C)C)c1c(C)nn(C)c1Cl` (stereo not drawn) [Compound 943], the “Log P” value is reported as 3.67^[a].
For `CCOC(=O)C(C#N)=C(NC(C)C1CC1)c1scnc1Cl` (stereo not drawn) [Compound 1466], the “Log P” value was 2.02^[a].
For `CCC(NC(=C(C#N)C(=O)OC)c1cccnc1Cl)c1ccc(Cl)cc1` (stereo not drawn) [Compound 376], the “Log P” value was 3.58^[a].
For `COC(=O)C(C#N)=C(Nc1ccccc1SC)c1cn(C)nc1C(F)F` [Compound 357], the “Log P” value was 2.8^[a].
With `COC1(NC(=O)C(C#N)=C(NC(C)C(C)C)c2cccnc2Cl)CC1` (stereo not drawn) [Compound 1613] the “Log P” value was 2.75^[a].
With `CCOC(=O)C(C#N)=C(NCc1nc2ccccc2s1)c1sccc1Br` [Compound 170] the “Log P” value was 3.53^[a].
For `CCOC(=O)C(C#N)=C(NC(C)C(C)C)c1ccnc2ccccc12` (stereo not drawn) [Compound 1496], the “Log P” value was 3.29^[a].
For `CCOC(=O)C(C#N)=C(NC1(C(=O)OC(C)CC)CC1)c1cc(C)oc1C` (stereo not drawn) [Compound 618], the “Log P” value was 3.94^[a].
With `CCOC(=O)C(C#N)=C(NC(C)C(N)=O)c1sccc1C(F)(F)F` (stereo not drawn) [Compound 610] the “Log P” value was 2.07^[a].
For `CCOC(=O)C(C#N)=C(NC(C)C(C)C)c1cn(C)nc1C(F)F` (stereo not drawn) [Compound 1003], the “Log P” value was 3.15^[a].
In the case of `C#CC(NC(=C(C#N)C(=O)OCC)c1cccnc1Cl)C(C)C` (stereo not drawn) [Compound 1521], the “Log P” value is reported as 3.37^[a].
With `COC(=O)C(C#N)=C(NCc1nccs1)c1sc(C)nc1C(F)(F)F` [Compound 132] the “Log P” value was 2.33^[a].
In the case of `CCCCCCC(C)NC(=C(C#N)C(=O)OCC)c1sccc1C(F)(F)F` (racemic) [Compound 815], the “Log P” value is reported as 5.48^[a].
In the case of `COC(=O)C(C#N)=C(NC(C)c1cccnc1)c1cccnc1Cl` (stereo not drawn) [Compound 109], the “Log P” value is reported as 0.82^[a].
With `CNC(=O)C(C)NC(=C(C#N)C(=O)OC)c1sc(C)nc1C(F)(F)F` (stereo not drawn) [Compound 638] the “Log P” value was 1.93^[a].
For `CCOC(=O)C(C#N)=C(NC(C)CF)c1cn(C)cc1C(F)(F)F` (stereo not drawn) [Compound 752], the “Log P” value was 2.95^[a].
In the case of `CCOC(=O)C(C#N)=C(NC(C)CC)c1cccnc1C(F)F` (racemic) [Compound 842], the “Log P” value is reported as 2.87^[a].
For `CCOC(=O)C(C#N)=C(NC(C)CSc1ccc(Cl)cc1)c1cn(C)nc1C(F)F` (stereo not drawn) [Compound 1234], the “Log P” value was 3.87^[a].
For `C#CC(C)NC(=C(C#N)C(=O)OC)c1cccnc1Cl` (stereo not drawn) [Compound 1045], the “Log P” value was 2.14^[a].
For `CCOC(=O)C(C#N)=C(NC(C)c1ccccn1)c1cn(C)nc1C(Cl)Cl` (racemic) [Compound 1565], the “Log P” value was 2.7^[a].
In the case of `CCOC(=O)C(C#N)=C(NC1CCC1)c1cc(Cl)ncc1Cl` [Compound 797], the “Log P” value is reported as 3.55^[a].
With `CCOC(=O)C(C#N)=C(NC(C)c1ccccc1)c1sc(C)nc1C(F)(F)F` (mixture of isomers) [Compound 452] the “Log P” value was 3.99^[a].
For `CON=C(C)NC(=O)C(C#N)=C(NC(C)C(C)C)c1cccnc1Cl` (stereo not drawn) [Compound 1619], the “Log P” value was 1.88^[a].
With `C=CCCCC(C=C)NC(=C(C#N)C(=O)OCC)c1sccc1Br` (racemic) [Compound 1017] the “Log P” value was 4.67^[a].
In the case of `CC#CC(C)NC(=C(C#N)C(=O)OCC)c1cn(C)nc1C(F)F` (stereo not drawn) [Compound 1142], the “Log P” value is reported as 2.8^[a].
For `CC(C)C(C)NC(=C(C#N)C(=O)N1CCCCC1)c1cccnc1Cl` (stereo not drawn) [Compound 1508], the “Log P” value was 3.48^[a].
For `CCNC(=O)C(C)NC(=C(C#N)C(=O)OCC)c1cccnc1Cl` (stereo not drawn) [Compound 728], the “Log P” value was 2.1^[a].
For `CCOC(=O)C(C#N)=C(NC(C)c1ccc(Cl)cc1)c1sc(Cl)nc1Cl` (racemic) [Compound 526], the “Log P” value was 4.54^[a].
For `CCOC(=O)C(C#N)=C(Nc1ccccc1SC)c1nc(Cl)ccc1Cl` [Compound 502], the “Log P” value was 3.99^[a].
For `CCOC(=O)C(C#N)=C(NCC(c1ccccc1)C(C)C)c1cccnc1Cl` (racemic) [Compound 545], the “Log P” value was 4.21^[a].
With `CCOC(=O)C(C#N)=C(NC(C)c1nc(C(C)C)no1)c1cccnc1Cl` (mixture of isomers) [Compound 282] the “Log P” value was 3.2^[a].
In the case of `CCOC(=O)C(C#N)=C(NC1(COc2ccccc2)CC1)c1cccnc1Cl` [Compound 560], the “Log P” value is reported as 3.6^[a].
With `CCOC(=O)C(C#N)=C(Nc1ccc(OC(F)F)cc1)c1ccsc1Br` [Compound 532] the “Log P” value was 3.73^[a].
For `CCOC(=O)C(C#N)=C(NC(C)C1CCCO1)c1cc(C)oc1C` (stereo not drawn) [Compound 118], the “Log P” value was 3.27^[a].
In the case of `CCOC(=O)C(C#N)=C(NC(C)C(C)C)c1ccnc(-c2ccccc2)c1Cl` (stereo not drawn) [Compound 1403], the “Log P” value is reported as 4.34^[a].
With `CCOC(=O)C(C#N)=C(NCc1ccc(F)cn1)c1ccsc1Br` [Compound 251] the “Log P” value was 3.04^[a].
For `CCOC(=O)C(C#N)=C(NC(C)c1csc(-c2ccccc2)n1)c1cccnc1Cl` (stereo not drawn) [Compound 1447], the “Log P” value was 4^[a].
For `CCCC(COC)NC(=C(C#N)C(=O)OCC)c1cccnc1Cl` (stereo not drawn) [Compound 1375], the “Log P” value was 3.31^[a].
In the case of `CCOC(=O)C(C#N)=C(NC1(COc2ccccc2)CC1)c1cn(C)nc1C(F)F` [Compound 561], the “Log P” value is reported as 3.37^[a].
In the case of `CCOC(=O)C(C#N)=C(NC(C)C1(Cl)CC1)c1ccsc1Br` (stereo not drawn) [Compound 774], the “Log P” value is reported as 3.92^[a].
With `CCOC(=O)C(C#N)=C(NC(C(=O)OCC)c1ccccc1)c1cccnc1Cl` (stereo not drawn) [Compound 1379] the “Log P” value was 3.39^[a].
In the case of `CCOC(=O)C(C#N)=C(NC(C)c1ccccn1)c1cn(C)nc1CC` (stereo not drawn) [Compound 1206], the “Log P” value is reported as 2.25^[a].
With `COC(=O)C(C#N)=C(NC(C)(C)C#N)c1sc(C)nc1C(F)(F)F` [Compound 1010] the “Log P” value was 3.04^[a].
With `CCOC(=O)C(C#N)=C(NC(C)C(C)Sc1ccccc1)c1cn(C)nc1C(F)F` (stereo not drawn) [Compound 737] the “Log P” value was 3.87^[a].
In the case of `CCOC(=O)C(C#N)=C(NC(C)C(C)C)c1ccnc(Br)c1Br` (stereo not drawn) [Compound 1410], the “Log P” value is reported as 3.96^[a].
For `CCOC(=O)C(C#N)=C(NC(C)(C)C=C(Cl)Cl)c1sccc1Br` [Compound 1105], the “Log P” value was 4.21^[a].
With `CCOC(=O)C(C#N)=C(NC(C)c1nc(C)sc1C)c1cccnc1Cl` (racemic) [Compound 1552] the “Log P” value was 2.84^[a].
With `CCOC(=O)CC(C)NC(=C(C#N)C(=O)OCC)c1cn(C)nc1C(F)F` (stereo not drawn) [Compound 1139] the “Log P” value was 2.66^[a].
In the case of `CCOC(=O)C(C#N)=C(NC(C)c1c(Cl)cccc1Cl)c1cccnc1Cl` (stereo not drawn) [Compound 1523], the “Log P” value is reported as 3.73^[a].
With `COC(=O)C(C#N)=C(NCc1ccccn1)c1cn(C)nc1C(F)F` [Compound 58] the “Log P” value was 1.63^[a].
In the case of `COC(=O)C(C#N)=C(NC(C)c1ccccc1)c1cccnc1Cl` (stereo not drawn) [Compound 404], the “Log P” value is reported as 2.89^[a].
With `CCOC(=O)C(C#N)=C(NC(C)CN(C)C)c1c(C)nn(C)c1F` (racemic) [Compound 584] the “Log P” value was 0.96^[a].
For `CCOC(=O)C(C#N)=C(NC1CCC1)c1cnn(C)c1C(F)F` [Compound 1304], the “Log P” value was 2.84^[a].
In the case of `CCOC(=O)C(C#N)=C(NC(c1cc2ccccc2s1)C(F)(F)F)c1cn(C)nc1C(F)(F)F` (racemic) [Compound 147], the “Log P” value is reported as 4.46^[a].
With `COCCNC(=O)C(C#N)=C(NC(C)c1ccccn1)c1cn(C)nc1C(F)F` (racemic) [Compound 1288] the “Log P” value was 1.75^[a].
In the case of `CCOC(=O)C(C#N)=C(NC(C)(C)C#Cc1ccc(C#N)cc1)c1sccc1Br` [Compound 1089], the “Log P” value is reported as 4.16^[a].

Same assay, conditions: pH 7.5
With `CCOC(=O)C(C#N)=C(NC(C)C(C)C)c1ccc(Cl)nc1Cl` (stereo not drawn) [Compound 986] the “Log P” value was 3.85^[c]; 3.85^[b].
For `CC(NC(=C(C#N)C(=O)OC(C)(C)C)c1cccnc1Cl)c1nccs1` (stereo not drawn) [Compound 25], the “Log P” value was 3.07.
With `CCOC(=O)C(C#N)=C(NC(C)C(C)C)c1cccnc1C(C)=O` (stereo not drawn) [Compound 980] the “Log P” value was 3.08.
For `CCOC(=O)C(C#N)=C(Nc1ccccc1SC)c1ccc(C)nc1Cl` [Compound 343], the “Log P” value was 3.41.
In the case of `CCOC(=O)C(C#N)=C(NC(C)c1nccs1)c1cccnc1F` (stereo not drawn) [Compound 79], the “Log P” value is reported as 2.32.
With `CCOC(=O)C(C#N)=C(Nc1cc(F)ccc1F)c1cccnc1Cl` [Compound 1609] the “Log P” value was 2.83.
For `CCOC(=O)C(C#N)=C(NC(C)C1CC1)c1cccnc1Cl` (mixture of isomers) [Compound 913], the “Log P” value was 2.9.
With `C=CCNC(=O)C(C#N)=C(NC(C)C(C)C)c1cccnc1Cl` (stereo not drawn) [Compound 1458] the “Log P” value was 3^[c]; 3^[b].
